# Test results taken from PMC10794144, “A novel antibiotic class targeting the lipopolysaccharide transporter” (Nature, 2024).
# Like-named read-outs stand apart in the source and are kept apart here.
# What was measured:
# C. albicans ATCC 90028 = assay: microbe, parasite or virus in culture; conditions: Candida albicans, ATCC90028
# [1] = system: K. pneumoniae ATCC 700603; assay: microbe, parasite or virus in culture; conditions: for MIC: Klebsiella pneumoniae
# In short: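 Broth microdilution following CLSI M07 and M100. Inocula were diluted from a 0.5 McFarland suspension in CAMHB. MIC is the lowest compound concentration inhibiting visible growth, or beyond which OD600 ceased to decrease.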
# Beta2-adrenoreceptor = target: T1, Beta2-adrenoreceptor (Homo sapiens, UniProt P07550); assay: Off-target screening (CEREP); type: binding; conditions: read-out: percent inhibition
# T1 construct: purchased Eurofins CEREP SA
# Experimental: (§1) Supplementary Table 1 │ Off-target activity screening f or MCP compou nds […]
# (§2) The assays given in the table above were conducted at Eurofins CEREP S A (Celle-Lévescault, France) and were run as single point measurements in duplicates in the presence of 10 µ M of the test compound and reported as percent inhibition of the radioligand signal or control enzymatic activity. n.d., not
# Muscarinic receptor M2 = target: T2, Muscarinic receptor M2 (Homo sapiens, UniProt P08172); assay: Off-target screening (CEREP); type: binding; conditions: read-out: percent inhibition
# T2 construct: purchased Eurofins CEREP SA
# T2 sequence (P08172 1-466): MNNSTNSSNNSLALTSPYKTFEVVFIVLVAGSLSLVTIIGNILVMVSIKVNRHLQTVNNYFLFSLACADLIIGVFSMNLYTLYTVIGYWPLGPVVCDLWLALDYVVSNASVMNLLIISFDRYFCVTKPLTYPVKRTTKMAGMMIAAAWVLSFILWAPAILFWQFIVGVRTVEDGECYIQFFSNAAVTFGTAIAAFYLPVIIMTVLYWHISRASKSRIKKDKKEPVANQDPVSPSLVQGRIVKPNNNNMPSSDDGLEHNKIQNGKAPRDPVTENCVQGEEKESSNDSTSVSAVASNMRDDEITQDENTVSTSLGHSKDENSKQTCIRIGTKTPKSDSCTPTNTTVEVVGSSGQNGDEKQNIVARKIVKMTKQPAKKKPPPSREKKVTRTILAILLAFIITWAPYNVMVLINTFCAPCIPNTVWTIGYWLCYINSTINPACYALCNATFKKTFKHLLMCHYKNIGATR
# Experimental: as §1, §2
# Dopamine D1 receptor = target: T3, Dopamine D1 receptor (Homo sapiens, UniProt P21728); assay: Off-target screening (CEREP); type: binding; conditions: read-out: percent inhibition
# T3 construct: purchased Eurofins CEREP SA
# Experimental: as §1, §2
# Histamine H1 receptor = target: T4, Histamine H1 receptor (Homo sapiens, UniProt P35367); assay: Off-target screening (CEREP); type: binding; conditions: read-out: percent inhibition
# T4 construct: purchased Eurofins CEREP SA
# Experimental: as §1, §2
# Estrogen receptor alpha = target: T5, Estrogen receptor alpha (Homo sapiens, UniProt P03372); assay: Off-target screening (CEREP); type: binding; conditions: read-out: percent inhibition
# T5 construct: purchased Eurofins CEREP SA
# Experimental: as §1, §2
# Cannabinoid receptor CB1 = target: T6, Cannabinoid receptor CB1 (Homo sapiens, UniProt P21554); assay: Off-target screening (CEREP); type: binding; conditions: read-out: percent inhibition
# T6 construct: purchased Eurofins CEREP SA
# Experimental: as §1, §2
# Mu opioid receptor = target: T7, Mu opioid receptor (Homo sapiens, UniProt P35372); assay: Off-target screening (CEREP); type: binding; conditions: read-out: percent inhibition
# T7 construct: purchased Eurofins CEREP SA
# Experimental: as §1, §2
# Beta1-adrenoreceptor = target: T8, Beta1-adrenoreceptor (Homo sapiens, UniProt P08588); assay: Off-target screening (CEREP); type: binding; conditions: read-out: percent inhibition
# T8 construct: purchased Eurofins CEREP SA
# Experimental: as §1, §2
# 5HT1A = target: T9, 5HT1A (Homo sapiens, UniProt P08908); assay: Off-target screening (CEREP); type: binding; conditions: read-out: percent inhibition
# T9 construct: purchased Eurofins CEREP SA
# T9 sequence (P08908 1-422): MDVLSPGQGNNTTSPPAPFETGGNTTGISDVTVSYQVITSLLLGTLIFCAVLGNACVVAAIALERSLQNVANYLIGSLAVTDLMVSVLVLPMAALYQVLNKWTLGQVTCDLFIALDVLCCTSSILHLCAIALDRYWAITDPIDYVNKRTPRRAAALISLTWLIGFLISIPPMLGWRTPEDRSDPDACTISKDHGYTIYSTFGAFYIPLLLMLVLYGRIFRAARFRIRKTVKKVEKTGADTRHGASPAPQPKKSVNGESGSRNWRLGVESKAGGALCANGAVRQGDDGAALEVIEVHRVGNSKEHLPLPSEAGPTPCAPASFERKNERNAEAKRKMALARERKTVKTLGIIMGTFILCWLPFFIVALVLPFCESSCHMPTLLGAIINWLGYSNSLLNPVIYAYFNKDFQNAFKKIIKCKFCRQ
# Experimental: as §1, §2
# 5HT2B = target: T10, 5HT2B (Homo sapiens, UniProt P41595); assay: Off-target screening (CEREP); type: binding; conditions: read-out: percent inhibition
# T10 construct: purchased Eurofins CEREP SA
# Experimental: as §1, §2
# [2] = target: T11, Angiotensin II receptor 1 (Homo sapiens, UniProt P30556); assay: Off-target screening (CEREP); type: binding; conditions: read-out: percent inhibition
# T11 construct: purchased Eurofins CEREP SA
# T11 sequence (P30556 1-359): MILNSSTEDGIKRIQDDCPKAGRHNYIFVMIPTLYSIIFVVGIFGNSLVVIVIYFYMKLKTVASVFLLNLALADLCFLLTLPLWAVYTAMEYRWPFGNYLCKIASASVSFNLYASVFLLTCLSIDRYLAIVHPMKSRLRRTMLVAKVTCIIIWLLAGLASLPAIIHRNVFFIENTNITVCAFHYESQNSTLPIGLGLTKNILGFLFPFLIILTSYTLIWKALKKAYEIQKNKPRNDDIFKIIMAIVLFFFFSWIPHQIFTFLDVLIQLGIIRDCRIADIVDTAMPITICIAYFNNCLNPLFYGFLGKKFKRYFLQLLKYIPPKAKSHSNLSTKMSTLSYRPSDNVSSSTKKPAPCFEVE
# Experimental: as §1, §2
# [3] = system: GABA-A (benzodiazapine binding site); assay: Off-target screening (CEREP); design: species or system rat; conditions: 10 µM, duplicates
# Experimental: as §1, §2
# PCP receptor = assay: Off-target screening (CEREP); type: binding, rat; conditions: 10 µM, duplicates
# Experimental: as §1, §2
# [4] = system: Ca2+ channel (diltiazem site); assay: Off-target screening (CEREP); type: binding, rat; conditions: 10 µM, duplicates
# Experimental: as §1, §2
# [5] = system: GABA Cl- channel receptor; assay: Off-target screening (CEREP); type: binding, rat; conditions: 10 µM, duplicates
# Experimental: as §1, §2
# T3 sequence (P21728 whole entry): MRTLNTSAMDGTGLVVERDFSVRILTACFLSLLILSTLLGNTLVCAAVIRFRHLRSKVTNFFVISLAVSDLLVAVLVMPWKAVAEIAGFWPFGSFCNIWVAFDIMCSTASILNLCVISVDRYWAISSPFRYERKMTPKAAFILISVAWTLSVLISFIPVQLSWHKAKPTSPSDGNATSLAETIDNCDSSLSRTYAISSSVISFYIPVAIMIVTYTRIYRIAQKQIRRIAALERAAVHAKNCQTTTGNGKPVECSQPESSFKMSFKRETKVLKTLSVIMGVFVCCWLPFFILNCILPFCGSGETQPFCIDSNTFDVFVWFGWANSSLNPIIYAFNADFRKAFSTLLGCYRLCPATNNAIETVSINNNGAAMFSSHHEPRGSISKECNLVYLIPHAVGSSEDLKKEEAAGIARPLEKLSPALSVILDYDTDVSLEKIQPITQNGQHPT
# T4 sequence (P35367 whole entry): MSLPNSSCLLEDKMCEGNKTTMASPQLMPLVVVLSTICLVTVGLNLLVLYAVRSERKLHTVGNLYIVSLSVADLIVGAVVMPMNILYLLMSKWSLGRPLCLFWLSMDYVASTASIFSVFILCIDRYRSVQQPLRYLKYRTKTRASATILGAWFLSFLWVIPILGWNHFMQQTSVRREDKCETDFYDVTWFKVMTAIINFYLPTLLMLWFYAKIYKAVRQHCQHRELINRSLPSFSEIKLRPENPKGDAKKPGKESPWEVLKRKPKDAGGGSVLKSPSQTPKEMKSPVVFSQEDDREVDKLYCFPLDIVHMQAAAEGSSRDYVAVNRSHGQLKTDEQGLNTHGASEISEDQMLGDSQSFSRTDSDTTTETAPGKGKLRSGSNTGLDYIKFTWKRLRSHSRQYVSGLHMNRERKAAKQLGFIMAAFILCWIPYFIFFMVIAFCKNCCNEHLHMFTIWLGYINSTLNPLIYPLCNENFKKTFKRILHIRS
# T7 sequence (P35372 whole entry): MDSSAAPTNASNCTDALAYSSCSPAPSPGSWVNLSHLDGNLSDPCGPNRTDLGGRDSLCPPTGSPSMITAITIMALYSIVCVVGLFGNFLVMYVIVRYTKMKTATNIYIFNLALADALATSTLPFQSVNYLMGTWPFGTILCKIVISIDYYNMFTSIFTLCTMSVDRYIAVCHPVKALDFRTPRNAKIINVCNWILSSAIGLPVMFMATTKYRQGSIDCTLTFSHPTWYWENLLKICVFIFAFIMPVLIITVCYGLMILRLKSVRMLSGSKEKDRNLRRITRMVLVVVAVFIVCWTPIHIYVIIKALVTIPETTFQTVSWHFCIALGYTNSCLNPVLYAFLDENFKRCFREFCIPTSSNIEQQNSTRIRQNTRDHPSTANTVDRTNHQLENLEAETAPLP
# T5 sequence (P03372 whole entry): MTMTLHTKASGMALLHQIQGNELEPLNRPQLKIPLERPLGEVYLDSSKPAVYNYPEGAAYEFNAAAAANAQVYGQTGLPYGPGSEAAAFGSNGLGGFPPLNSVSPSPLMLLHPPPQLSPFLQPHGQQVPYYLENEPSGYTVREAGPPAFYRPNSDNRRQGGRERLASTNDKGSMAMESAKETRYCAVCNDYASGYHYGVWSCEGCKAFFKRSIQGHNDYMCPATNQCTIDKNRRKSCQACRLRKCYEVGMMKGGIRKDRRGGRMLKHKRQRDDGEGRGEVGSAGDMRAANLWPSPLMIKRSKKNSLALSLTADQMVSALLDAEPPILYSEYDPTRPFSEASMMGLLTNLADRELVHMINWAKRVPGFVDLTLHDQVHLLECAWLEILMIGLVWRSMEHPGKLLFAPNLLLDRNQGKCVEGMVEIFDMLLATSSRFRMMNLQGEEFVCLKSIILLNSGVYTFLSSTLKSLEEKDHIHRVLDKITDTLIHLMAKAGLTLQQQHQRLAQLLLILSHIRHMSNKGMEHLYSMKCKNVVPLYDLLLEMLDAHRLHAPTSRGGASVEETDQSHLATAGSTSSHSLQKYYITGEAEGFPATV
# T8 sequence (P08588 whole entry): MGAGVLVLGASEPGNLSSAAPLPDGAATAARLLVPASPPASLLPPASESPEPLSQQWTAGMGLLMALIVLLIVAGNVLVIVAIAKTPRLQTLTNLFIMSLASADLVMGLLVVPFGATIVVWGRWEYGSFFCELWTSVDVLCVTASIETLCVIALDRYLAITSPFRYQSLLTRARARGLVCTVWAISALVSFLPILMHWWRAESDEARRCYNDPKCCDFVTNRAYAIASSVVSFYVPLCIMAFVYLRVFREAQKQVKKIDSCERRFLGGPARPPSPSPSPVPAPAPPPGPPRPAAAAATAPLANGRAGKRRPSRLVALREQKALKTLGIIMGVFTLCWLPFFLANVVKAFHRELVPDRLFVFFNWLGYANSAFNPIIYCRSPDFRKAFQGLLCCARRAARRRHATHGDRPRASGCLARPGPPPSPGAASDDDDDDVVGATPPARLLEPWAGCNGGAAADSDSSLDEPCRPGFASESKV
# T10 sequence (P41595 whole entry): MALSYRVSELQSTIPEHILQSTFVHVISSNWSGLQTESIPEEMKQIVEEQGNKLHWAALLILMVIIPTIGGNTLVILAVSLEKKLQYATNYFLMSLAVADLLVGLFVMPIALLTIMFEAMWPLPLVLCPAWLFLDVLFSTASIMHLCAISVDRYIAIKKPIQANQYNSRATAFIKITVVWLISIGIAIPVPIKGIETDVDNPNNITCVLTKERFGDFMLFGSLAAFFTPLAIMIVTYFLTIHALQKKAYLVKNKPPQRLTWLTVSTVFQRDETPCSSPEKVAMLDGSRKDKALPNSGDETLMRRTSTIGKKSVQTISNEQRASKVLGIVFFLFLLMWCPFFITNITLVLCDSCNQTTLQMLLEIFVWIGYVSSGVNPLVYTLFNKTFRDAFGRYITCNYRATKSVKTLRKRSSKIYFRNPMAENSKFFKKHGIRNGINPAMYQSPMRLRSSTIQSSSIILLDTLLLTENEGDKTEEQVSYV
# T1 sequence (P07550 whole entry): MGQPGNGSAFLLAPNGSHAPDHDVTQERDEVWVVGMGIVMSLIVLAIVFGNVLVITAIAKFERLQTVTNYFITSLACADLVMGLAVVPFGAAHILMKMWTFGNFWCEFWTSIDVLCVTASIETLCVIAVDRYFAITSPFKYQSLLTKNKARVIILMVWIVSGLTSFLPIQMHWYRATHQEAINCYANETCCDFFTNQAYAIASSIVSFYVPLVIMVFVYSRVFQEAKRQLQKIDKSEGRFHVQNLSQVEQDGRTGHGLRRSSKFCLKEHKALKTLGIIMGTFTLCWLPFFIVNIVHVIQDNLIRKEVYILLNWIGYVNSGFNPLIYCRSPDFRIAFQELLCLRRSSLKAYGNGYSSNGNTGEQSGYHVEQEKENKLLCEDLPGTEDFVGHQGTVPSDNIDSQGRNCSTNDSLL
# T6 sequence (P21554 whole entry): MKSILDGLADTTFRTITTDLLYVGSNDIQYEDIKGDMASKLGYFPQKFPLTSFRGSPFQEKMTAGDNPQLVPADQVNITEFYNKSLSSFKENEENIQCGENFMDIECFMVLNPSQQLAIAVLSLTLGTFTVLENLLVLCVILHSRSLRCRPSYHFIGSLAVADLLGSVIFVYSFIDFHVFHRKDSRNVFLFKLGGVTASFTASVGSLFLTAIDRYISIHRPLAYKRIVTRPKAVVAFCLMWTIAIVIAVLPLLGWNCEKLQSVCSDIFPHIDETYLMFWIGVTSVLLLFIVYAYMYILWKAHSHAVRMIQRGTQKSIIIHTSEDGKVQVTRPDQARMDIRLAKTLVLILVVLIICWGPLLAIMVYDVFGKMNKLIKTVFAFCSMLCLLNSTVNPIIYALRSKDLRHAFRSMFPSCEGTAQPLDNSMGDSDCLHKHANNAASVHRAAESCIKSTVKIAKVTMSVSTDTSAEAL
compound,measurement,setting,value
CN1C(=O)[C@H](CCCN)NC(=O)[C@H](CCCN)NCc2ccccc2Sc2ccccc2CNC(=O)[C@@H]1Cc1c[nH]c2ccccc12 [RO7036668],MIC,C. albicans ATCC 90028,64 µg/mL
same,MIC,"[1]; ATCC700603, CAMHB, mode of at least three replicates (RO7036668 one replicate)",> 64 µg/mL
same,MIC 100%,[1]; Study ROC004,>64 µg/mL
same,inhibition at 10 µM,"Beta2-adrenoreceptor; 10 µM, duplicates",3%
same,inhibition at 10 µM,"Muscarinic receptor M2; 10 µM, duplicates",14%
same,inhibition at 10 µM,"Dopamine D1 receptor; 10 µM, duplicates",27%
same,inhibition at 10 µM,"Histamine H1 receptor; 10 µM, duplicates",16%
same,inhibition at 10 µM,"Estrogen receptor alpha; 10 µM, duplicates",24%
same,inhibition at 10 µM,"Cannabinoid receptor CB1; 10 µM, duplicates",-26%
same,inhibition at 10 µM,"Mu opioid receptor; 10 µM, duplicates",63%
same,inhibition at 10 µM,"Beta1-adrenoreceptor; 10 µM, duplicates",12%
same,inhibition at 10 µM,"5HT1A; 10 µM, duplicates",33%
same,inhibition at 10 µM,"5HT2B; 10 µM, duplicates",27%
same,inhibition at 10 µM,"[2]; 10 µM, duplicates",14%
CN1C(=O)[C@H](CCCCN)NC(=O)[C@H](CCCN)NCc2cccnc2Sc2c(Cl)ccc(Cl)c2CNC(=O)[C@@H]1Cc1c[nH]c2ccccc12 [RO7075573],MIC,C. albicans ATCC 90028,> 64 µg/mL
same,MIC,[1]; ATCC700603,> 64 µg/mL
same,MIC 100%,[1]; Study LGC281440,32 µg/mL
same,MIC 100%,[1]; Study LGC282160,>64 µg/mL
same,MIC 100%,[1]; Study LGC284879,>64 µg/mL
same,MIC 100%,[1]; Study LGC285582,>64 µg/mL
same,MIC 100%,[1]; Study LGC286210,>64 µg/mL
same,MIC 100%,[1]; Study LGC293598,>64 µg/mL
same,MIC 100%,[1]; Study LGC294355,>64 µg/mL
same,MIC 100%,[1]; Study LGC295147,>64 µg/mL
same,MIC 100%,[1]; Study LGC296813,>64 µg/mL
same,MIC 100%,[1]; Study LGC299544,>64 µg/mL
same,MIC 100%,[1]; Study LGC301026,>64 µg/mL
same,MIC 100%,[1]; Study LGC308175,>64 µg/mL
same,MIC 100%,[1]; Study ROC010,>64 µg/mL
same,MIC 100%,[1]; Study ROC012,>64 µg/mL
same,Ames,Ames,Negative
same,inhibition at 10 µM,Beta2-adrenoreceptor,-7%
same,inhibition at 10 µM,Muscarinic receptor M2,11%
same,inhibition at 10 µM,Dopamine D1 receptor,8%
same,inhibition at 10 µM,Histamine H1 receptor,4%
same,inhibition at 10 µM,Estrogen receptor alpha,-3%
same,inhibition at 10 µM,Cannabinoid receptor CB1,-16%
same,inhibition at 10 µM,Mu opioid receptor,21%
same,inhibition at 10 µM,Beta1-adrenoreceptor,-2%
same,inhibition at 10 µM,5HT1A,11%
same,inhibition at 10 µM,5HT2B,1%
same,inhibition at 10 µM,[2],-7%
same,percent inhibition,[3],-20%
same,percent inhibition,PCP receptor,-10%
same,percent inhibition,[4],-1%
same,percent inhibition,[5],-9%
